# Values quoted from earlier work as cited in patent publication US20170281596A1, “PHARMACEUTICAL COMBINATION CONTAINING AN ANALGESIC AGENT AND AN ANTISPASMODIC AGENT” (priority 2014, published 2017).
smiles,measurement,setting,value
"O=C(c1ccccc1)c1ccc2n1CCC2C(=O)O (centres unmarked) [Ketorolac, carboxylic acid-5-Benzoyl-2,3-dihydro-1H-pyrrolisine-1,2-amino-2-hydroxymethyl-1,3-propanediol]",time at which the plasma concentration level is reached,administered every 6 hours,24 h
same,urinary elimination of Ketorolac and its metabolites,"main route of elimination, remainder through feces",92%
